This is an account of results in patent publication US20030119910A1, “Therapeutic or preventing agent for diseases caused by decrease in the expression level of klotho protein” (Kyowa Hakko Kogyo Co., Ltd., priority 2001, published 2003).

Each structure is given as a SMILES string.

Holding throughout (type): in vivo, mouse
For assay [1], the system named is female klotho mutant homozygotes. The experiment in a line: Life span of female klotho mutant homozygotes raised on feed. The settings on record: ornithine in feed. The text has this:
Female klotho mutant homozygotes obtained by the same method as in Example 3 were raised on the feed of Example 1, the feed of Comparative Example 1, the feed of Example 2 or the feed of Comparative Example 2 (number of animals: 4/group) to observe their life span. The number of mice that died before reaching the age of 11 weeks was 0 and 2 in the groups fed on the feed of Example 1 and the feed of Comparative Example 1, respectively, and was 1 and 2 in the groups fed on the feed of Example 2 and the feed of Comparative Example 2, respectively.

In assay [2] the test system is female homozygous klotho mutant mice. The assay is described as follows: Breeding results of female homozygous klotho mutant mice raised on feed. Particulars: ornithine in feed. The text has this: Male homozygous klotho mutant mice were raised on the feed of Comparative Example 3 and female homozygous klotho mutant mice were raised on the feed of Example 7 or the feed of Comparative Example 2, both to the age of 8 weeks. These male and female mice were mated and their breeding results were compared between the female group fed on the feed of Example 7 and that fed on the feed of Comparative Example 2. During the mating period, the males were transferred into the cages of females and so fed on the same feeds as the respective females.

The subject of assay [3] is Klotho protein. The assay is described as follows: Expression level of Klotho protein in the kidneys of male klotho mutant homozygotes raised on feed. Particulars: male homozygous klotho mutant mice, ornithine in feed. The text has this:
The determination of Klotho protein can be carried out by methods such as immune precipitation, Western blotting and enzyme-linked immunosorbent assay (ELISA) using an anti-Klotho protein antibody, and the determination of mRNA for the klotho gene can be carried out by methods such as Northern blot hybridization and reverse transcription-polymerase chain reaction (RT-PCR). The determination methods and methods for obtaining tissue samples, klotho gene, Klotho protein, probe DNA, primers, antibodies, etc. to be used in the determination are described in WO 98/29544.
(§1) Mice carrying a klotho mutation were bred by mating a pair of heterozygous klotho mutant mice provided by Tumor Biology, Pathology, Kyoto University Graduate School of Medicine. Klotho mutant homozygotes, klotho mutant heterozygotes and wild-type mice were confirmed by PCR. Male klotho mutant homozygotes were raised on the feed prepared in Example 1 or the feed prepared in Comparative Example 1 and were intermittently weighed (number of animals: 4/group). The mice were given the powdery feed through a commercially available powder feeder (KN-675 No. 4, Natsume Seisakusho) and filtered running water, both ad libitum. […] The expression level of Klotho protein was expressed as relative values based on the average value of the group raised on the feed of Comparative Example 1 up to the age of 6 weeks as 100.

Assay [4] has as its system female klotho mutant homozygotes. The experiment in a line: Body weight of female klotho mutant homozygotes raised on feed. Particulars: female homozygous individuals, ornithine in feed.
Excerpt: as §1
Female klotho mutant homozygotes obtained by the same method as in Example 3 were raised on the feed of Example 1 or the feed of Comparative Example 1 in the same manner as in Example 3 up to the age of 8 weeks, and their body weight was measured. […]
Female klotho mutant homozygotes obtained by the same method as in Example 3 were raised on the feed of Example 2 or the feed of Comparative Example 2 in the same manner as in Example 3 up to the age of 6 weeks, and their body weight was measured. […]

In assay [5] the test system is male homozygous klotho mutant mice. The assay is described as follows: Male klotho mutant homozygotes raised on feed: indices of premature aging-like syndrome (blood sugar, serum inorganic phosphorus, body weight). The settings on record: ornithine in feed. The source says: Mice carrying a klotho mutation were bred by mating a pair of heterozygous klotho mutant mice provided by Tumor Biology, Pathology, Kyoto University Graduate School of Medicine. Klotho mutant homozygotes, klotho mutant heterozygotes and wild-type mice were confirmed by PCR. Male klotho mutant homozygotes were raised on the feed prepared in Example 1 or the feed prepared in Comparative Example 1 and were intermittently weighed (number of animals: 4/group). The mice were given the powdery feed through a commercially available powder feeder (KN-675 No. 4, Natsume Seisakusho) and filtered running water, both ad libitum. The mice were raised in an SPF (specific pathogen-free) room kept at a temperature of 24±1° C. and a humidity of 55±10%. The expression level of Klotho protein was expressed as relative values based on the average value of the group raised on the feed of Comparative Example 1 up to the age of 6 weeks as 100.

Consider `NCCC[C@H](N)C(=O)O` [ornithine], for which the “Effect on life span” value in assay [1] was “effective in prolonging life span”. For the same compound, in assay [2], the “Effect on breeding result” value is “improved the breeding result”. Moreover, the “Effect on expression level of kidney Klotho protein” value in assay [3] is reported as “effective in raising the expression level of kidney Klotho protein”. For the same compound, the “Effect on body weight” value in assay [4] is listed as “weight-increasing effect”. Moreover, the “Effect on premature aging-like syndrome” value in assay [5] is listed as “inhibitory effects on premature aging-like syndrome”.
